“And” between values parts separate entries of the source, which are not always exact repeats. Equal values may be shown once. Read-outs that look alike come from different tables or passages of the source.
Tests used:
[1] = biological target: T1, serotonin transporters (SERT) (Homo sapiens, UniProt P31645); experiment: PET study of SERT occupancy with 11C-MADAM in healthy male volunteers; format: in vivo; conditions: read-out: SERT RO %; for receptor occupancy at 10 mg: 10 mg once a day; for receptor occupancy at 30 mg: 30 mg once a day; for receptor occupancy at 45 mg: 45 mg once a day (30 mg for 3 days first); for receptor occupancy at 60 mg: 60 mg once a day (30 mg for 3 days first)
T1 construct: evaluate in healthy male volunteers with respect to safety, tolerability and pharmacokinetics as well as DAT and SERT occupancy; from tissue; host or cells: living human brain (striatum, thalamus), PET in healthy male volunteers
Text: The PET study was a part of a strategy in previous clinical development of the compound of formula I to evaluate in healthy male volunteers with respect to safety, tolerability and pharmacokinetics as well as DAT and SERT occupancy.
The relationship between plasma the compound of formula I concentration and SERT occupancies, using the individual values, is presented in FIG. 8 and FIG. 9. The numeric values for the individual SERT and […] occupancy and the corresponding plasma concentrations are tabulated in Example 12.
(§1) Striatal receptor occupancy at dopamine transporters (DAT) and serotonin transporters (SERT) with plasma concentrations of Formula I at the midpoint time of the post dosing PET (positron emission tomography) scans (T=4 and 24) after once-a-day multiple doses of 3-60 mg and 10-60 mg for SERT and DAT healthy male cohorts, respectively (Tables below, RO stands for receptor occupancy). Post dosing PET scans were conducted at day 10 (4 h post last dose) and day 14 (24 h post last dose) assuming steady state conditions, using the specific DAT and SERT tracers ^11C-PE2I and ^11C-MADAM, respectively. For 45 mg and 60 mg cohorts, there was titration by administration of 30 mg for 3 days and then from day 4 the specified dose. Representative reports on using these two tracers are Leamed-Coughlin S M et al, Biol Psychiatry. 2003, 54(8):800-5; Jucaite A et al, Eur J Nucl Med Mol Imaging. 2006, 33(6):657-68; and Lundberg J et al, Int J Neuropsychopharmacol. 2007, 10(6):777-85.

[2] = biological target: T2, dopamine transporters (DAT) (Homo sapiens, UniProt Q01959); experiment: PET study of striatal DAT occupancy with 11C-PE2I in healthy male volunteers; format: in vivo
T2 construct: evaluate in healthy male volunteers with respect to safety, tolerability and pharmacokinetics as well as DAT and SERT occupancy; from tissue; host or cells: living human brain (striatum), PET in healthy male volunteers
Text: The PET study was a part of a strategy in previous clinical development of the compound of formula I to evaluate in healthy male volunteers with respect to safety, tolerability and pharmacokinetics as well as DAT and SERT occupancy. […]
as §1

[3] = 14-day once-a-day oral multiple ascending dose PK study, day-14 data; format: in vivo, human; conditions: for Cmax: read-out: Formula I plasma concentration (Cmax); for concentration at 0 h: day 14, blood draw at 0 h (pre-dose trough)
Method: (§2) A LC-MS/MS method was developed and validated for the quantitation of Formula I in 0.250 mL of human EDTA plasma in a total of 7 runs, out of which 1 run was rejected. The method utilized stable labeled Formula I as an internal standard. After the addition of the internal standard (equivalent to 285.4 ng/mL in human EDTA plasma) and 0.250 mL of each quality control (QC) sample and calibration standard, 0.525 mL of methyl t-butyl ether (MTBE) was added to the 96-well sample tubes. The organic layer was removed and evaporated to dryness using a liquid-liquid extraction (LLE). The residue was reconstituted and injected into the LC-MS/MS system. Chromatographic separation was achieved through gradient elution on an Acquity UPLC, BEH Shield RP18™, 50×2.1 mm, 1.7 μm particle size column. The mobile phase contained water, acetonitrile, ammonium formate, and formic acid. Detection was accomplished using a Sciex API 4000 tandem mass spectrometer in positive ion electrospray SRM mode. The standard curves, which ranged from 1.00 to 1000 ng/mL for Formula I, were fitted to a 1/×2 weighted linear regression model. The intra-assay precisions, based on four levels of analytical QCs (low, mid, GM, and high), were within 4.2% CV and inter-assay precisions were within 7.2% CV for the analyte. The assay accuracy, expressed as % DEV, was within 6.4% of the nominal concentration values for the analyte. […] The LLOQ response ratio, when compared to the QCO response ratio, was >, 5 in all matrix lots. The analyte was stable in human EDTA plasma for at least 24 h at room temperature, for at least 14 days at −20° C., and following at least 3 freeze-thaw cycles. The processed samples were stable for 72 hours (h) at room temperature.
Tabulated, day-14 PK data (Cmax, Ctrough and AUC) for healthy humans in a 14-day, once-a-day oral dosing, multiple ascending dose study of compound of Formula I.

[4] = Stability of Formula I in human EDTA plasma (LC-MS/MS validation); format: in vitro ADME
Method: as §2

[5] = biological target: Transporter, Dopamine (DAT) (Homo sapiens, UniProt Q01959); experiment: DAT radioligand binding ([125I] RTI-55), Eurofins; conditions: read-out: DAT, % inhibition, 10 nM compound
Method: Source: Human recombinant CHO—S cells;
Incubation Time/Temp: 3 hours @ 4° C.;
(§3) Incubation Buffer: 50 mM Tris-HCl, pH 7.4, 100 mM NaCl, 1 μM Leupeptin, 10 μM PMSF;
Non-Specific Ligand: 10.0 μM Nomifensine;
Specific Binding: 90% (Historical Values);
(§4) Quantitation Method: Radioligand Binding;

[6] = biological target: Transporter, Norepinephrine (NET) (Homo sapiens, UniProt P23975); experiment: NET radioligand binding ([125I] RTI-55), Eurofins; conditions: read-out: NET, % inhibition, 10 nM compound
Method: Source: Human recombinant MDCK cells;
Incubation Time/Temp: 3 hours @ 4° C.;
as §3
Non-Specific Ligand: 10.0 μM Desipramine;
as §4

[7] = 24 h, day 14, 24 h post last dose

T1 sequence (P31645 whole entry): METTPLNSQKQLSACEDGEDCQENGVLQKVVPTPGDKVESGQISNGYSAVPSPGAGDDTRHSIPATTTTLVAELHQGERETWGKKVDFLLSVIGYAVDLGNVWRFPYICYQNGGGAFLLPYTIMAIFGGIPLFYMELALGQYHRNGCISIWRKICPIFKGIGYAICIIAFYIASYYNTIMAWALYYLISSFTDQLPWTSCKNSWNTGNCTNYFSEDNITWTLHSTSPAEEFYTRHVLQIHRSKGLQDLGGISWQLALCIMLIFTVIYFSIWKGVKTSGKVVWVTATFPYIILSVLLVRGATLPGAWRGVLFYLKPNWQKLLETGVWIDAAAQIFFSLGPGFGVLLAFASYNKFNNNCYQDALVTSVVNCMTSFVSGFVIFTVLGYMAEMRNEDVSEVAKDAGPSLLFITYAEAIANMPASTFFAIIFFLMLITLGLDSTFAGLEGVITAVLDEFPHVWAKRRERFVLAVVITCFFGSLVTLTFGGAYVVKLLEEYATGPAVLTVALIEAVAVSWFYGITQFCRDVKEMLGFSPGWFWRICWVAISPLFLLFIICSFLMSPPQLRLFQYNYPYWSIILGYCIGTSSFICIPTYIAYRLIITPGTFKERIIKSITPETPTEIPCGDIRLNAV
T2 sequence (Q01959 whole entry): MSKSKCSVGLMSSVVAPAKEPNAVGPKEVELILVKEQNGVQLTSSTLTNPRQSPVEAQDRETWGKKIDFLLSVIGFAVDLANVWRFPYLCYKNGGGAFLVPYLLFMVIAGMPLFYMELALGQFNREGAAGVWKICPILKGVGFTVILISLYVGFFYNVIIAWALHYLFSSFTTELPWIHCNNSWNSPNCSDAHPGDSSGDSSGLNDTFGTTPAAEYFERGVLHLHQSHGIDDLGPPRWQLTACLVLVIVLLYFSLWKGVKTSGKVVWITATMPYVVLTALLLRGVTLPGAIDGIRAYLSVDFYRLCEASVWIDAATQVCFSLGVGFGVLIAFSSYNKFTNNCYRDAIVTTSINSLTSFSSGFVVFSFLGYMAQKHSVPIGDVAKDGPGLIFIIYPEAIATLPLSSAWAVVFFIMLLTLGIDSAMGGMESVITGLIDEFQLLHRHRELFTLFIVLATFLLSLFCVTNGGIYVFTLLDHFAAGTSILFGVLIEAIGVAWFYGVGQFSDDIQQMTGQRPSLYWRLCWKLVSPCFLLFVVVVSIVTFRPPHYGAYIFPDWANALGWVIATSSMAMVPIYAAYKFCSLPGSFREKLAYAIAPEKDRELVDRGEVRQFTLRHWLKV
Transporter, Norepinephrine (NET), sequence (P23975 whole entry): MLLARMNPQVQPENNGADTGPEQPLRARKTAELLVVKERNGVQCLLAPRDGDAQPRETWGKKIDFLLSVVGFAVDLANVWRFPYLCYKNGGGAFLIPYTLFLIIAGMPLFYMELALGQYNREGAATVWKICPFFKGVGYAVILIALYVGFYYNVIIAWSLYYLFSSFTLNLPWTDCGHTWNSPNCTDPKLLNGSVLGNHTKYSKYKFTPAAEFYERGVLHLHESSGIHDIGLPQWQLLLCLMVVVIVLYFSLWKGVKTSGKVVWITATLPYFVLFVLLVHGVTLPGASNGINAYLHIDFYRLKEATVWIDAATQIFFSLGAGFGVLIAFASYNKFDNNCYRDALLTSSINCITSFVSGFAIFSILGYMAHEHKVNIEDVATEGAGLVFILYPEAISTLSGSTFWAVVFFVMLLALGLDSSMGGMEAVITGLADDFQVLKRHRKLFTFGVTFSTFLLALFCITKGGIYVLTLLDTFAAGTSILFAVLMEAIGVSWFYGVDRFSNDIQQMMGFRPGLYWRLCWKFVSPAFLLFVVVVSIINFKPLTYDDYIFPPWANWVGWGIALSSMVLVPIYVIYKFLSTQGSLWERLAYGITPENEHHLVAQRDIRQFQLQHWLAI
Transporter, Dopamine (DAT), sequence (Q01959 whole entry): as the sequence (Q01959 whole entry) above

Question: What does the source list for Clc1ccc(C2CNCc3cc(-c4ccc5ncnn5c4)ccc32)cc1Cl (stereo not drawn) [Formula I, 7-([1,2,4]triazolo[1,5-a]pyridin-6-yl)-4-(3,4-dichlorophenyl)-1,2,3,4-tetrahydroisoquinoline]?
Answer: receptor occupancy at 10 mg ([1]; 4 h, day 10, 4 h post dose): 53%; receptor occupancy at 30 mg ([1]; 4 h, day 10, 4 h post dose): 71%; receptor occupancy at 45 mg ([1]; 4 h, day 10, 4 h post dose): 73%; receptor occupancy at 60 mg ([1]; 4 h, day 10, 4 h post dose): 70%; receptor occupancy at 10 mg [1, 7]: 47%; receptor occupancy at 30 mg [1, 7]: 69%; receptor occupancy at 45 mg [1, 7]: 73%; receptor occupancy at 60 mg [1, 7]: 76%; DAT RO % ([2]; 10 mg once a day, day 10, 4 h post dose): 12% and 21% and 18%; DAT RO % ([2]; 30 mg once a day, day 10, 4 h post dose): 22% and 43% and 36%; DAT RO % ([2]; 30 mg once a day, day 14, 24 h post last dose): 26% and 23% and 43%; DAT RO % ([2]; 45 mg once a day (30 mg for 3 days first), day 10, 4 h post dose): 42% and 44% and 48%; DAT RO % ([2]; 45 mg once a day (30 mg for 3 days first), day 14, 24 h post last dose): 36% and 41% and 43%; DAT RO % ([2]; 60 mg once a day (30 mg for 3 days first), day 10 (subject 77: day 11), 4 h post dose): 60% and 59%; DAT RO % ([2]; 60 mg once a day (30 mg for 3 days first), day 14, 24 h post last dose): 48% and 49%; DAT occupancy ([2]; following multiple doses of 60 mg): up to 60%; Formula I plasma concentration ([3]; 3 mg daily, male, day 14, draw at about 23-24 h (Ctrough)): 42 ng/mL; Cmax ([3]; female, human, plasma, oral, 45 mg, 45 mg daily, day 14, draw flagged Cmax (1-3 h)): 1680 ng/mL; concentration at 0 h ([3]; female, human, plasma, oral, 45 mg, 45 mg daily, female, read-out: Formula I plasma concentration): 997 ng/mL; concentration at 24 h ([3]; female, human, plasma, oral, 45 mg, 45 mg daily, female, day 14, draw at about 24 h (Ctrough), read-out: Formula I plasma concentration): 901 ng/mL; AUC ([3]; female, human, plasma, oral, 45 mg, 45 mg daily, female, day 14, printed in the 24 h draw line): 10100 ng·h/mL; concentration at 0 h ([3]; male, human, plasma, oral, 3 mg, 3 mg daily, male, read-out: Formula I plasma concentration): 42 ng/mL; Cmax ([3]; male, human, plasma, oral, 3 mg, 3 mg daily, male, day 14, draw flagged Cmax (1-3 h)): 66 ng/mL; AUC ([3]; male, human, plasma, oral, 3 mg, 3 mg daily, male, day 14, printed in the 23-24 h draw line): 439 ng·h/mL; Cmax ([3]; male, human, plasma, oral, 10 mg, 10 mg daily, day 14, draw flagged Cmax (1-3 h)): 218 ng/mL; concentration at 0 h ([3]; male, human, plasma, oral, 10 mg, 10 mg daily, male, read-out: Formula I plasma concentration): 125 ng/mL; AUC ([3]; male, human, plasma, oral, 10 mg, 10 mg daily, male, day 14, printed in the 23-24 h draw line): 1260 ng·h/mL; Cmax ([3]; male, human, plasma, oral, 45 mg, 45 mg daily, day 14, draw flagged Cmax (1-2 h)): 1150 ng/mL; concentration at 0 h ([3]; male, human, plasma, oral, 45 mg, 45 mg daily, male, read-out: Formula I plasma concentration): 635 ng/mL; concentration at 23 h ([3]; male, human, plasma, oral, 45 mg, 45 mg daily, male, day 14, draw at 23 h (Ctrough), read-out: Formula I plasma concentration): 672 ng/mL; AUC ([3]; male, human, plasma, oral, 45 mg, 45 mg daily, male, day 14, printed in the 23 h draw line): 6280 ng·h/mL; stable in human EDTA plasma ([4]; freeze-thaw): at least 3 freeze-thaw cycles; stable in human EDTA plasma ([4]; room temperature): at least 24 h; stable in human EDTA plasma ([4]; −20° C.): at least 14 days; inhibition at 0.01 µM [5]: 47%; inhibition at 0.01 µM [6]: 35%
